In data set [1] the target is T1, leucine aminopeptidase (Sus scrofa, UniProt P28839).
T1 sequence (P28839 1-519): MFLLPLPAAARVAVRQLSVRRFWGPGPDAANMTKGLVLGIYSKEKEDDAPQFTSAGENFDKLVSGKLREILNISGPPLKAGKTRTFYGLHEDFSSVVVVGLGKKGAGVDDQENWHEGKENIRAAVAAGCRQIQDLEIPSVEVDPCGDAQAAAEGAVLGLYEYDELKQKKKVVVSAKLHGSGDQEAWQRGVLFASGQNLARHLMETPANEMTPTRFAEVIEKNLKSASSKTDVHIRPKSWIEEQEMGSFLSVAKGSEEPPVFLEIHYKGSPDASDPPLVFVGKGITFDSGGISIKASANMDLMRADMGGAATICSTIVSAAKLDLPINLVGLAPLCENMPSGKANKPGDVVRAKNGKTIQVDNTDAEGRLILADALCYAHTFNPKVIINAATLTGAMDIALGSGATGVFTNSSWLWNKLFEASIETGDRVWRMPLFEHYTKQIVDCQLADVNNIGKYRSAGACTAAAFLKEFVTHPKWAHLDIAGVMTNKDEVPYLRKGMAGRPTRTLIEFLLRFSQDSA
The data set is described as follows: In vitro stability in leucine aminopeptidase solution. As to conditions: pH 7.4. Here is the method:
(§1) A SHT200D block heater from Stuart Scientific was used for heating of the peptide/enzyme solutions during the stability experiments. The degradation of the test compounds was studied at 37° C. in 50 mM phosphate buffer solutions of pH 7.4 containing leucine aminopeptidase (25 U/ml) or carboxypeptidase A (1 U/ml) or 100 mM ammoniumbicarbonate buffer of pH 8.0 containing dipeptidyl aminopeptidase IV (0.5 U/ml). Experiments were initiated by addition of an aliquot (100 μl) of a stock solution (1 mg/ml) of the peptide in water to 900 μl preheated enzyme solution in an Eppendorf microvial giving an initial concentration of 0.1 mg/ml (˜1.7·10−5-1.8·10−5 M) of the peptide. The peptide/enzyme solution was kept at 37° C. and at appropriate time intervals samples of 100 μl were withdrawn from the peptide/enzyme solution and mixed thoroughly with 20 μl 25% TFA in acetonitrile in order to stop the enzymatic degradation process. The inactivated samples were transferred to autosampler vials and analysed for content of intact test compound by HPLC as described below.
(§2) Samples from the stability experiments performed as described above were analysed by gradient HPLC analysis using the instrumentation described above and the following experimental conditions.
(§3) In vitro stability studies with the present peptides and peptide conjugates in the presence of selected proteolytic enzymes are applied as a tool for evaluating the protection of said peptides against proteolysis in vivo.
(§4) Water used was of highest quality obtained from a Milli-Q water treatment system (Millipore, Bedford, Mass., U.S.A.). Acetonitrile (ACN) was of super gradient quality obtained from Labscan Ltd. (Dublin, Ireland). […] Leucine aminopeptidase (EC 3.4.11.1), Carboxypeptidase A (EC 3.4.17.1) and Dipeptidyl peptidase (Dipeptidyl aminopeptidase IV, EC 3.4.14.5) were all obtained from Sigma (St. Louis, Mo., U.S.A.). Gradient HPLC analysis was done using a Hewlett Packard HP 1100 HPLC system consisting of a HP 1100 Binary Pump, a HP 1100 Autosampler, A HP 1100 Column Thermostat and a HP 1100 Variable Wavelength Detector. Hewlett Packard Chem-station for LC software (Rev. A.06.01) was used for instrument control and data acquisition. A Vydac 238TP54 (150×4.6 mm I.D.) column packed with 5 μm, C18, 300 Å

Data set [2] concerns the target dipeptidyl aminopeptidase IV (Sus scrofa, UniProt P22411). The data set is described as follows: In vitro stability in dipeptidyl aminopeptidase IV solution. As to conditions: pH 8. Here is the method:
as §1, §2, §3, §4

For data set [3], the target named is T2, carboxypeptidase A (Bos taurus, UniProt P00730).
T2 sequence (P00730 111-419): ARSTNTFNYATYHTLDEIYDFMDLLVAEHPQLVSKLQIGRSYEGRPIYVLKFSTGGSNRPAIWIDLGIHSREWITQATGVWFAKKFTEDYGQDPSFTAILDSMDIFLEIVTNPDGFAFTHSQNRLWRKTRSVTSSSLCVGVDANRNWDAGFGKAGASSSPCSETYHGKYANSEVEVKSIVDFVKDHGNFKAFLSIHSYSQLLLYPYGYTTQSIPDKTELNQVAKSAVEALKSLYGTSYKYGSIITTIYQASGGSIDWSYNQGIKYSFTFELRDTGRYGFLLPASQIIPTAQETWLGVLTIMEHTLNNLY
The data set is described as follows: In vitro stability in carboxypeptidase A solution. The note with it: pH 7.4. Here is the method:
as §1, §2, §3, §4

Data set [4] deals with T3, (Rattus norvegicus, UniProt P32301).
T3 construct: host or cells: brain tissue: nucleus of the solitary tract
T3 sequence (P32301 22-463): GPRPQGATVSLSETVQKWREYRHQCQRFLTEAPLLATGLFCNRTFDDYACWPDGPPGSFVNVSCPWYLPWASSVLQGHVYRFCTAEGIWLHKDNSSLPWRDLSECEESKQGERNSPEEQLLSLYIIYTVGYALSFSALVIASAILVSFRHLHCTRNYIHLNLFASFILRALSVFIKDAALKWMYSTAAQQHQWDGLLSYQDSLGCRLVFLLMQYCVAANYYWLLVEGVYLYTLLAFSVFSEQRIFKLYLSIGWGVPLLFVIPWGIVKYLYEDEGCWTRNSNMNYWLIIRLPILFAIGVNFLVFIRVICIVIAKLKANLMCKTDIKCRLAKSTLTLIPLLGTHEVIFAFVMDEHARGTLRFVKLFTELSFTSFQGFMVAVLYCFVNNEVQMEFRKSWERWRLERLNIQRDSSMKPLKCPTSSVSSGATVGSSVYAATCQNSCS
As to conditions: inhibition of [^125I]GLP-1 binding; cited from earlier work.

dipeptidyl aminopeptidase IV, sequence (P22411 whole entry): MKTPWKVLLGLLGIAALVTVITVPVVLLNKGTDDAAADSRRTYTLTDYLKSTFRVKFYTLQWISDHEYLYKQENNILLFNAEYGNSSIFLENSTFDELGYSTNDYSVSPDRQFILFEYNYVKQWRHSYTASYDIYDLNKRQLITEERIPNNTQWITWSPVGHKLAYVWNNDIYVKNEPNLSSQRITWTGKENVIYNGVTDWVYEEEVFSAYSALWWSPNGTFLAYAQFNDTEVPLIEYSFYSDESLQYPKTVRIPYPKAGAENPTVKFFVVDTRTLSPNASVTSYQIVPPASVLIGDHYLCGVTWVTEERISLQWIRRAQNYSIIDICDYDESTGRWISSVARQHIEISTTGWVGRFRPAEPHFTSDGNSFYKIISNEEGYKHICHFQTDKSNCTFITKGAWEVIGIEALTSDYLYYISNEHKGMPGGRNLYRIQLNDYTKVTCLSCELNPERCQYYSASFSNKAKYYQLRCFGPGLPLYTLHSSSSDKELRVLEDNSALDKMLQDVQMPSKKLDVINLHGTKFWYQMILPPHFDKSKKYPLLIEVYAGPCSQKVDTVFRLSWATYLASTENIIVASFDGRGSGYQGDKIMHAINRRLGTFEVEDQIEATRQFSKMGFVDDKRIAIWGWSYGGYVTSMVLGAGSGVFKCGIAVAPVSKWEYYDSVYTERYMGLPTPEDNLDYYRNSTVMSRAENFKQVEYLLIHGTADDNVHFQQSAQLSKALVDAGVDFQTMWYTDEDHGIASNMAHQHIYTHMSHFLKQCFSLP

As to `CC[C@H](C)[C@H](NC(=O)[C@H](Cc1ccccc1)NC(=O)[C@H](CCC(=O)O)NC(=O)[C@H](CCCCN)NC(=O)[C@H](C)NC(=O)[C@H](C)NC(=O)[C@H](CCC(N)=O)NC(=O)CNC(=O)[C@H](CCC(=O)O)NC(=O)[C@H](CC(C)C)NC(=O)[C@H](Cc1ccc(O)cc1)NC(=O)[C@H](CO)NC(=O)[C@H](CO)NC(=O)[C@@H](NC(=O)[C@H](CC(=O)O)NC(=O)[C@H](CO)NC(=O)[C@@H](NC(=O)[C@H](Cc1ccccc1)NC(=O)[C@@H](NC(=O)CNC(=O)[C@H](CCC(=O)O)NC(=O)[C@H](C)NC(=O)[C@@H](N)Cc1c[nH]cn1)[C@@H](C)O)[C@@H](C)O)C(C)C)C(=O)N[C@@H](C)C(=O)N[C@@H](Cc1c[nH]c2ccccc12)C(=O)N[C@@H](CC(C)C)C(=O)N[C@H](C(=O)N[C@@H](CCCCN)C(=O)NCC(=O)N[C@@H](CCCNC(=N)N)C(N)=O)C(C)C` [GLP-1, H-hGLP-1(7-36)-NH2, reference compound], the half-life (usually how long it takes for the measured level to halve) at 0.1 mg/ml in data set [1] turned out to be 152 min; in data set [2], 2 min; in data set [3] it was 48 min.
[Tyr39]exendin-4: in data set [4], the Ki (in general, a measure of affinity in units of concentration, obtained from inhibition or displacement) is 9.4 nM.
